The target of assay [1] is T1, Amyloid-beta(1-42) oligomer binding to purified human brain membranes (Homo sapiens, UniProt P05067).
T1 construct: Beta-amyloid (1-42) was purchased from rPeptide (Cat. No. A1163); purchased rPeptide A1163
Kind of assay: Inhibition of Amyloid-beta(1-42) oligomer binding to purified human brain cell membranes (ELISA). As to conditions: Abeta(1-42) oligomers, read-out: Abeta42/Membrane Activity (IC-50). The protocol: (§1) Purified human brain cell membranes were prepared by differential centrifugation as follows. Five grams of frozen human brain postmortem tissue (obtained from University of Kentucky Alzheimer's Disease Center Tissue Bank) was homogenized in 50 ml HEPES-Buffered sucrose (0.32M sucrose, 4 mM HEPES pH7.4, protease inhibitors) with a motor driven glass-teflon homogenizer. After removing nuclear and cell debris by centrifugation of homogenates at 1,000×g for 10 min at 4 degree Celsius, post-nuclear supernatant was centrifuged at 100,000×g for 30 minutes to yield the crude membrane pellet. Crude membrane pellet was re-suspended in 0.32M sucrose, then centrifuged again at 100,000×g for 30 minutes to yield washed membrane pellet. Membrane pellet was resuspended in sterile PBS (pH7.4), quickly frozen, and kept in aliquots at −80 degrees Celsius. This preparation contains human brain cell membranes. Protein concentration was measured with BCA protein assay kit (Pierce Cat. No. 23227). Purified brain membranes were diluted to 0.01 mg/ml in PBS (pH 7.4) and then added to a 96 well polystyrene ELISA plate (NUNC Cat. No. 449824; 100 μl per well). Plates were incubated Over Night (ON) at 4 degrees Celsius. Following the incubation, the plate was washed consecutively, by immersion, with de-ionized water and PBS (pH 7.4). The ELISA plate was then blocked with nonfat milk (2%, 200 μl per well) for 2 hours at Room Temperature (RT). Following blocking, the plate was washed with de-ionized water then PBS (pH 7.4). GBAPs were dissolved and diluted in PBS (pH 6.5, supplemented with 0.1% BSA) at desired concentrations, added to the ELISA plates coated with brain membranes (100 μl per well) and incubated for 2 hours at RT with gentle shaking. Following incubation, the plate was washed with de-ionized water and three times with PBS (pH 6.5) plus Tween. Bound GBAP was detected by a monoclonal antibody specific for that GBAP, followed by incubation with secondary antibody conjugated to horseradish peroxidase (HRP). Antibody was diluted in PBS (pH6.5 supplemented with 1% BSA). Following each incubation with antibody, the plate was washed with de-ionized water and three times with PBS (pH6.5) wash buffer containing 0.1% Tween. The peroxidase substrate chromogen, TMB (Dako Cat. No. S1599) was added (100 μl per well) to the ELISA plate and incubated at room temperature. After 5 minutes ELISA Stop Solution (hydrochloric acid 1N, sulfuric acid 3N) was added (100 μl per well) to stop the peroxidase catalyzed colorimetric reaction. The Optical Density of the samples was measured at 450 nm using an ELISA plate reader (BioTek Synergy H1). Following color development, the % inhibition compared to control was determined. IC-50s were calculated using GraphPad Prism software.
(§2) The assay was performed as described in Example 49, with the following modifications. Following to coating the plates with purified human brain cell membranes, plates were washed as described. The compounds were dissolved in DMSO at 10 mM final concentration and further diluted prior to assay. DMSO concentration in the screening well was up to 2%. Individual compounds were co-incubated with Beta-amyloid peptides on plates coated with purified human brain membranes. Beta-amyloid (1-42) oligomers were prepared as described in Example 2. Beta-amyloid (1-40) from rPeptide (Cat No. A1153) was dissolved in DMSO, quickly frozen and kept in aliquots at −80 degrees Celsius. Beta-amyloid (1-42) oligomers or Beta-amyloid (1-40) dissolved in PBS (pH 6.5, supplemented with BSA, 0.1%) were added to the ELISA plate (100 μl per well) and incubated for 2 hours at RT with gentle shaking. Following the incubation, the plate was washed with de-ionized water and three times with PBS (pH 6.5) plus Tween. […]
On the technique in general: ELISA stands for enzyme-linked immunosorbent assay.

In assay [2] the target is T2, Amyloid-beta(1-40) binding to purified human brain membranes (Homo sapiens, UniProt P05067).
T2 construct: Beta-amyloid (1-40) from rPeptide (Cat No. A1153) was dissolved in DMSO; purchased rPeptide A1153
Kind of assay: Inhibition of Amyloid-beta(1-40) binding to purified human brain cell membranes (ELISA). To be noted: Abeta(1-40), read-out: Abeta40/Membrane Activity (IC-50). As to the method: as §1, §2

Assay [3] addresses Tau binding to purified human brain membranes (Homo sapiens, UniProt P10636). Kind of assay: Inhibition of Tau binding to purified human brain cell membranes (ELISA). The protocol: as §1
The assay was performed as described in Example 49, with the following modifications.
Following to coating the plates with purified human brain cell membranes, plates were washed as described. The compounds were dissolved in DMSO at 10 mM final concentration and further diluted prior to assay. DMSO concentration in the screening well was up to 2%. Individual compounds were co-incubated with Tau on plates coated with purified human brain membranes. Tau purchased from rPeptide (Cat. No. T1001) was dissolved in DMSO (Sigma Cat. No. D2650), quickly frozen and kept in aliquots at −80 degrees Celsius. Tau dissolved in PBS (pH 6.5, supplemented with BSA, 0.1%) was added to the ELISA plate (100 μl per well) and incubated for 2 hours at RT with gentle shaking. Following the incubation, the plate was washed with de-ionized water and three times with PBS (pH 6.5) plus Tween. Bound Tau was detected by anti-Tau Monoclonal Antibody D-8 (Santa Cruz Cat. No. sc-166060), followed by secondary anti-IgG antibody conjugated to HRP (R&D System, Cat. No. HAF007). Following to color development with TMB, as described in Example 49, the Optical Density of the samples was measured at 450 nm using an ELISA plate reader. […]

Each structure is given as a SMILES string. pIC50: −log10 of the molar value. Where a name gives a salt, the structure may show the parent alone. Read-outs that look alike come from different tables or passages of the source.

T1 sequence (P05067 672-713): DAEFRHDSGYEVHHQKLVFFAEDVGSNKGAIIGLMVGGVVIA
T2 sequence (P05067 672-711): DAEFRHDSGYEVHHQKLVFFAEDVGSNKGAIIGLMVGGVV
Chain of Tau binding to purified human brain membranes (P10636 with tags, fused parts or gaps): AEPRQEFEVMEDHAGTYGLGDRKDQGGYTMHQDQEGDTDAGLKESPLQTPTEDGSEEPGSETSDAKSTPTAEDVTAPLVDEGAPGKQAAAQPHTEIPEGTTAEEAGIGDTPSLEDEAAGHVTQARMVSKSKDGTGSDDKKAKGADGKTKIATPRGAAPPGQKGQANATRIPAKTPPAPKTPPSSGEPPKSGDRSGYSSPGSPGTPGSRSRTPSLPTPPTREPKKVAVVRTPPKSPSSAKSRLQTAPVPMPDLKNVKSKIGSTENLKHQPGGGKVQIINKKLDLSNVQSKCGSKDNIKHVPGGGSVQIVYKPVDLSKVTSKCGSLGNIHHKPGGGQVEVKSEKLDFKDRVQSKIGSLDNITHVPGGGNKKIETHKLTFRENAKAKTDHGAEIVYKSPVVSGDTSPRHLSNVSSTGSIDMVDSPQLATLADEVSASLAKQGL

Consider `C/C(=N\Nc1ncnc2cc(F)ccc12)c1ccc(-n2cnc(C)c2C)nc1` [Compound 21, (E)-4-(2-(1-(6-(4,5-dimethyl-1H-imidazol-1-yl)pyridin-3-yl)ethylidene)hydrazineyl)-7-fluoroquinazoline], for which the pIC50 was 5.48 in assay [1] and 5.23 in assay [2]. Turning to `C/C(=N\Nc1ncnc2cc(Cl)ccc12)c1ccc(-n2cc(C)nc2C)nc1` [Compound 18, (E)-7-chloro-4-(2-(1-(6-(2,4-dimethyl-1H-imidazol-1-yl)pyridin-3-yl)ethylidene)hydrazineyl)quinazoline phosphoric acid salt], the pIC50 in assay [2] was 4.76. In the case of `Cc1ncn(-c2ccc(/C=N/Nc3ccnc4cc(Cl)ccc34)cc2)c1C` [Compound 2, (E)-7-chloro-4-((E)-(4-(4,5-dimethyl-1H-imidazol-1-yl)benzylidene)hydrazono)-1,4-dihydroquinoline], the pIC50 in assay [3] is 4.94. On to `Cc1ncn(-c2ccc(/C=N\Nc3ncnc4cc(Cl)ccc34)cn2)c1C` [Compound 15, 7-chloro-4-(2-((6-(4,5-dimethyl-1H-imidazol-1-yl)pyridin-3-yl)methylene)hydrazineyl)quinazoline hydrochloride], for which the pIC50 in assay [1] is 5.15. As to `CC(=NNc1ncnc2cc(Cl)ccc12)c1ccnc(-n2cnc(C)c2C)c1` [Compound 28, 7-chloro-4-(2-(1-(2-(4,5-dimethyl-1H-imidazol-1-yl)pyridin-4-yl)ethylidene)hydrazineyl)quinazoline], the pIC50 in assay [2] is 5.43. Consider `COc1ccc2c(NN=Cc3ccc(-n4ccnc4)c(C)c3)ccnc2c1` [Compound 12, 4-(2-(4-(1H-imidazol-1-yl)-3-methylbenzylidene)hydrazineyl)-7-methoxyquinoline], for which the pIC50 in assay [3] was 4.52. Consider `C/C(=N\Nc1ncnc2cc(F)ccc12)c1ccc(-n2cc[n+](C)c2)nc1` [Compound 26, (E)-1-(5-(1-(2-(7-fluoroquinazolin-4-yl)hydrazineylidene)ethyl)pyridin-2-yl)-3-methyl-1H-imidazol-3-ium phosphoric acid salt], for which the pIC50 in assay [2] was 5.82. On to `Clc1ccc2c(Nc3ccc(-n4cncn4)nc3)ncnc2c1` [Compound 34, N-(6-(1H-1,2,4-triazol-1-yl)pyridin-3-yl)-7-chloroquinazolin-4-amine phosphoric acid salt], for which, in assay [1], the pIC50 was 4.98. For the molecule `Cc1ncn(-c2ccc(Nc3ncnc4cc(Cl)ccc34)cn2)c1C` [Compound 25, 7-chloro-N-(6-(4,5-dimethyl-1H-imidazol-1-yl)pyridin-3-yl)quinazolin-4-amine], the pIC50 in assay [1] was 5.15; in assay [2] it was 5.33.

`CC(=NNc1ccnc2cc(Cl)ccc12)c1ccc(-n2ccnc2)cc1` [Compound 36, 4-(2-(1-(4-(1H-imidazol-1-yl)phenyl)ethylidene)hydrazineyl)-7-chloroquinoline phosphate]: the pIC50 in assay [1] is 4.73. With `Clc1ccc2c(Nc3ccc(-n4cncn4)nc3)ccnc2c1` [Compound 44, N-(6-(1H-1,2,4-triazol-1-yl)pyridin-3-yl)-7-chloroquinolin-4-amine], in assay [2], the pIC50 is 4.37. Still for that read-out and setting: for `C/C(=N\Nc1ncnc2cc(Cl)ccc12)c1ccc(-n2cc[n+](C)c2)nc1` [Compound 17, (E)-1-(5-(1-(2-(7-chloroquinazolin-4-yl)hydrazineylidene)ethyl)pyridin-2-yl)-3-methyl-1H-imidazol-3-ium iodide phosphoric acid salt] the value was 4.55. For `Fc1ccc2c(N/N=C/c3ccc(CN4CCOCC4)cc3)ccnc2c1` [Compound 6, (E)-4-(4-((2-(7-fluoroquinolin-4-yl)hydrazono)methyl)benzyl)morpholine], the pIC50 in assay [3] was 6.20. With `CN1CCN(Cc2ccc(/C=N/Nc3ccnc4cc(Cl)ccc34)cc2)CC1` [Compound 7, (E)-7-chloro-4-(2-(4-((4-methylpiperazin-1-yl)methyl)benzylidene)hydrazinyl)quinolone], the pIC50 in assay [3] is 5.91. Regarding `C/C(=N\Nc1ncnc2cc(Cl)ccc12)c1ccc(-n2cc(C)nc2C)nc1` [Compound 27, (E)-7-chloro-4-(2-(1-(6-(2,4-dimethyl-1H-imidazol-1-yl)pyridin-3-yl)ethylidene)hydrazineyl)quinazoline hydrochloride], the pIC50 was 5.40 in assay [1] and 5.65 in assay [2]. For `Clc1ccc2c(Nc3ccc(-n4ccnc4)nc3)ncnc2c1` [Compound 41, N-(6-(1H-imidazol-1-yl)pyridin-3-yl)-7-chloroquinazolin-4-amine], the pIC50 in assay [2] is 4.73; in assay [3] (Tau, purified human brain membranes, read-out: Tau/Membrane Activity (IC-50)) it was 5.25.

On to `CCN(CC)Cc1cccc(Nc2ccnc3cc(Cl)ccc23)c1` [Compound 42, 7-chloro-N-(3-((diethylamino)methyl)phenyl)quinolin-4-amine], for which, in assay [2], the pIC50 was 5.18. In the case of `CCN1CCN(c2ccc(Nc3ccnc4cc5ccccc5cc34)cc2)CC1` [Compound 39, N-(4-(4-ethylpiperazin-1-yl)phenyl)benzo[g]quinolin-4-amine], the pIC50 was 5.84 in assay [2] and 4.27 in assay [3]. In the case of `Fc1cc(/C=N/Nc2ccnc3cc(Cl)ccc23)ccc1-n1ccnc1` [Compound 35, (E)-7-chloro-4-(2-(3-fluoro-4-(1H-imidazol-1-yl)benzylidene)hydrazineyl)quinoline hydrochloride], the pIC50 was 4.98 in assay [1] and 4.38 in assay [2]. On the same counts, the results for `CC(=NNc1ccnc2cc(Cl)ccc12)c1ccc(-n2cnc(C)c2C)nc1` [Compound 22, 7-chloro-4-(2-(1-(6-(4,5-dimethyl-1H-imidazol-1-yl)pyridin-3-yl)ethylidene)hydrazineyl)quinoline] are 5.45 and 5.75.

For `Fc1ccc2c(N/N=C/c3ccc(-n4ccnc4)cc3)ccnc2c1` [Compound 5, (E)-4-(2-(4-(1H-imidazol-1-yl)benzylidene)hydrazinyl)-7-fluoroquinoline], the pIC50 in assay [3] was 6.08. As for `C/C(=N\Nc1ncnc2ccccc12)c1ccc(-n2cc(C)nc2C)nc1` [Compound 19, (E)-4-(2-(1-(6-(2,4-dimethyl-1H-imidazol-1-yl)pyridin-3-yl)ethylidene)hydrazineyl)quinazoline], the pIC50 in assay [2] is 5.51. With `COc1cc2nccc(NN=Cc3ccc(-n4ccnc4)c(C)c3)c2cc1OC` [Compound 11, 4-(2-(4-(1H-imidazol-1-yl)-3-methylbenzylidene)hydrazineyl)-6,7-dimethoxyquinoline hydrochloride], the pIC50 in assay [3] was 5.08.

(Values after patent publication US20240398783A1, “Compounds and Pharmaceutical Compositions Comprising Inhibitors of Amyloid Peptide Interactions with Glycosaminoglycans, Methods of Treatment and Use Thereof” (Gismo Therapeutics, Inc., priority 2021, published 2024).)
